From patent publication US10357481B2 (MERCK SHARP & DOHME CORP., priority 2015, dated 2019)

Biological target: T1, human PDE2A1 (Homo sapiens, UniProt O00408)
T1 construct: GST; purchased BPS Bioscience (San Diego, Calif.) 60020; host or cells: insect cells
Assay: IMAP FP PDE selectivity panel, human PDE2A1
Assay type: biochemical
Settings: Lab B; read-out: Human PDE2 Ki (nM) Lab B
Description: Selectivity for PDE2, as compared to other PDE families, was assessed using the IMAP® technology. Human PDE10A2 enzyme was prepared from cytosolic fractions of transiently transfected HEK cells.
Assays for PDE 1 through 11 were performed in parallel at room temperature in 384-well microtiter plates with an incubation volume of 20.2 μL. Solutions of test compounds were prepared in DMSO and serially diluted with DMSO to yield 30 μL of each of ten solutions differing by 3-fold in concentration, at 32 serial dilutions per plate. […] A Labcyte POD 810 (Labcyte, Sunnyvale, Calif.) was used to dispense 200 nL from each well of the titration plate to make eleven copies of the assay plate for each titration, one copy for each PDE enzyme. A solution of each enzyme (dilution from aliquots, sufficient to produce 20% substrate conversion) and a separate solution of FAM-labeled cAMP or FAM-labeled cGMP from Molecular Devices (Sunnyvale, Calif., product # R7506 or cGMP#R7508), at a final concentration of 50 nM were made in the assay buffer (10 mM Tris HCl, pH 7.2, 10 mM MgCl2, 0.05% NaN3 0.01% Tween-20, and 1 mM DTT). Note that the substrate for PDE2 is 50 nM FAM cAMP containing 1000 nM of cGMP. The enzyme and the substrate were then added to the assay plates in two consecutive additions of 10 μL and then shaken to mix. The reaction was allowed to proceed at room temperature for 60 minutes. A binding solution was then made from the kit components, comprised of 80% Solution A, 20% Solution B and binding reagent at a volume of 1/600 the total binding solution. The enzymatic reaction was stopped by addition of 60 μL of the binding solution to each well of the assay plate. The plates were sealed and shaken for 10 seconds. The plates were incubated at room temperature for one hour, then the parallel and perpendicular fluorescence was measured using a Tecan Genios Pro plate reader (Tecan, Switzerland). […] The intrinsic PDE2 inhibitory activity of a compound which may be used in accordance with the present invention may be determined by these assays.

T1 sequence (O00408 1-920 isoform O00408-2): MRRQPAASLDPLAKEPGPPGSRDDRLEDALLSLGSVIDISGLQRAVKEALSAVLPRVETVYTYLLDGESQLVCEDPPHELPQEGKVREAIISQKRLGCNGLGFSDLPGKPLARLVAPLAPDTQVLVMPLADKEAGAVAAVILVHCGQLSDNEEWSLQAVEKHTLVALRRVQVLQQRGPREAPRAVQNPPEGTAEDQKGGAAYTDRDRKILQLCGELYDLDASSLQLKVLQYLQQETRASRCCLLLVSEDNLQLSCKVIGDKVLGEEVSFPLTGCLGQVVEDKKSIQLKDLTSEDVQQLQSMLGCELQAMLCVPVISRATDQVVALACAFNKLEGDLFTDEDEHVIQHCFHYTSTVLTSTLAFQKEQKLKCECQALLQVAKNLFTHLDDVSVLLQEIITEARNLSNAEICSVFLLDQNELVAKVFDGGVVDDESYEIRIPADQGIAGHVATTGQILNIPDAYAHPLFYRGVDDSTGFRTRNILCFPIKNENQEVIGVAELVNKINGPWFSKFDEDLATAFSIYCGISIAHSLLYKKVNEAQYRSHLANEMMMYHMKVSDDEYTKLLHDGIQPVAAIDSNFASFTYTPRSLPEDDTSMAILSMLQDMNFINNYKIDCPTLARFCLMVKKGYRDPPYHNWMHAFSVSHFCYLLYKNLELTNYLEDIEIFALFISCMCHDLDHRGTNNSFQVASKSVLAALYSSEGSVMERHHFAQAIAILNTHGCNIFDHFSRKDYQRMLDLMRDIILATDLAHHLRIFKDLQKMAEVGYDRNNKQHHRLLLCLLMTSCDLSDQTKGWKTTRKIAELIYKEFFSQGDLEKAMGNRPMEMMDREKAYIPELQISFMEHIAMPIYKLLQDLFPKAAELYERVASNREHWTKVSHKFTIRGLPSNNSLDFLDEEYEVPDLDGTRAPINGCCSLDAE

CC[C@@H](Nc1cc(C)nc2ncnn12)c1ccc(C(F)(F)F)c(F)c1 [Example 16, N-{(1R)-1-[3-Fluoro-4-(trifluoromethyl)phenyl]propyl}-5-methyl[1,2,4]triazolo[1,5-a] pyrimidin-7-amine]
Ki: 61 nM

Cc1cc(N[C@H](C)c2ccc(OC(F)(F)F)c(F)c2)n2ncnc2n1 [Example 8, N-{(1R)-1-[3-Fluoro-4-(trifluoromethoxy)phenyl]ethyl}-5-methyl[1,2,4]triazolo[1,5-a] pyrimidin-7-amine]
Ki: 57 nM

Cc1cc(NC(c2ccc3ccccc3c2)C(C)(C)O)n2ncnc2n1 (single isomer, unassigned) [Example 123, (1R or S)-2-Methyl-1-[(5-methyl [1,2,4]triazolo [1,5-a]pyrimidin-7-yl)amino]-1-naphthalen-2-yl propan-2-ol]
Ki: 35 nM

Fc1cc(C2(Nc3cncc4ncnn34)CC2)ccc1C(F)(F)F [Example 285, N-{1-[3-Fluoro-4-(trifluoromethyl)phenyl]cyclopropyl}[1,2,4]triazolo [1,5-a]pyrazin-5-amine]
Ki: 22 nM

CC(C)(O)C(Nc1cc(C(F)(F)F)nc2ncnn12)c1ccc(C(F)F)cc1 (single isomer, unassigned) [Example 163, (1S or R)-1-[4-(Difluoromethyl)phenyl]-2-methyl-1-{[5-(trifluoromethyl) [1,2,4]triazolo [1,5-a]pyrimidin-7-yl]amino} propan-2-ol]
Ki: 77 nM

Cc1cc(N[C@@H](c2ccc(SC(F)(F)F)c(F)c2)C2CC2)n2ncnc2n1 [Example 41, N-[(R)-Cyclopropyl{3-fluoro-4-[(trifluoromethyl)sulfanyl]phenyl}methyl]-5-methyl[1,2,4]triazolo[1,5-a] pyrimidin-7-amine]
Ki: 19 nM

COc1cc(N[C@H](c2ccc(C(F)(F)F)c(F)c2)C(C)(C)O)n2ncnc2n1 (single isomer, unassigned) [Example 236]
Ki: 210 nM

Cc1cc(NC(c2ccc(S(F)(F)(F)(F)F)cc2)C(C)(C)O)n2ncnc2n1 (single isomer, unassigned) [Example 116, (1S or R)-2-Methyl-1-[(5-methyl[1,2,4]triazolo[1,5-a]pyrimidin-7-yl)amino]-1-[4-(pentafluoro-λ^6-sulfanyl)phenyl] propan-2-ol]
Ki: > 2960 nM

Cc1cc(NC(c2ccc(OC(F)F)cc2)C(C)(C)O)n2ncnc2n1 (single isomer, unassigned) [Example 111, (1R or S)-1-[4-(Difluoro-methoxy)phenyl]-2-methyl-1-[(5-methyl[1,2,4]triazolo[1,5-a]pyrimidin-7-yl)amino]propan-2-ol]
Ki: 26 nM

Cc1cc(N[C@@H](c2ccc(C(F)(F)F)cc2)[C@@H](C)O)n2ncnc2n1 [Example 89, (1S,2R)-1-[(5-Methyl[1,2,4]triazolo[1,5-a]pyrimidin-7-yl)amino]-1-[4-(trifluoromethyl)phenyl]propan-2-ol]
Ki: 82 nM

Cc1cc(NC(c2ccc3c(c2)OC(F)(F)O3)C(C)(C)O)n2ncnc2n1 (single isomer, unassigned) [Example 113, (1R or S)-1-(2,2-Difluoro-1,3-benzodioxol-5-yl)-2-methyl-1-[(5-methyl[1,2,4]triazolo[1,5-a]pyrimidin-7-yl)amino]propan-2-ol]
Ki: 93 nM

CCc1nc2nc(C)cc(N[C@@H](c3ccc(C(F)(F)F)c(F)c3)C(C)(C)C)n2n1 [Example 203, (R)-2-Ethyl-N-(1-(3-fluoro-4-(trifluoromethyl)phenyl)-2,2-dimethylpropyl)-5-methyl-[1,2,4]triazolo [1,5-a]pyrimidin-7-amine]
Ki: 33 nM

CC(C)(O)[C@H](Nc1cc(C(F)(F)F)nc2ncnn12)c1ccc(S(F)(F)(F)(F)F)cc1 (single isomer, unassigned) [Example 178]
Ki: 421 nM

Cc1cc(N[C@H](c2ccc(OC(F)(F)F)cc2)C(C)(C)O)n2ncnc2n1 [Example 97, (1R)-2-Methyl-1-[(5-methyl [1,2,4]triazolo[1,5-a]pyrimidin-7-yl)amino]-1-[4-(trifluoromethoxy)phenyl]propan-2-ol]
Ki: > 2960 nM

Cc1cc(N[C@@H](c2ccc(C3CC3)cc2)C2CC2)n2ncnc2n1 [Example 42, N-[(R)-Cyclopropyl(4-cyclopropylphenyl)methyl]-5-methyl[1,2,4]triazolo[1,5-a] pyrimidin-7-amine]
Ki: 20 nM

Cc1cc(N[C@@H](c2ccc(C(F)(F)F)c(F)c2)C(C)(C)C)n2ncnc2n1 [Example 27, N-{(1R)-1-[3-Fluoro-4-(trifluoromethyl)phenyl]-2,2-dimethylpropyl}-5-methyl[1,2,4]triazolo[1,5-a] pyrimidin-7-amine]
Ki: 10 nM

CN(C)c1cc(N[C@H](c2ccc(C(F)(F)F)c(F)c2)C(C)(C)O)n2ncnc2n1 (single isomer, unassigned) [Example 243]
Ki: > 2960 nM

CC(C)(O)C(Nc1cc(C(F)(F)F)nc2ncnn12)c1ccc(OC(F)(F)F)cc1F (single isomer, unassigned) [Example 171, (1S or R)-1-[2-Fluoro-4-(trifluoromethoxy)phenyl]-2-methyl-1-{[5-(trifluoromethyl) [1,2,4]triazolo [1,5-a]pyrimidin-7-yl]amino} propan-2-ol]
Ki: ~1560 nM

CC(C)(N)C(Nc1cc(C(F)(F)F)nc2ncnn12)c1ccc(C(F)(F)F)c(F)c1 (single isomer, unassigned) [Example 254, (S)- or (R)-1-(3-Fluoro-4-(trifluoromethyl)phenyl)-2-methyl-N^1-(5-(trifluoromethyl)-[1,2,4]triazolo [1,5-a]pyrimidin-7-yl) propane-1,2-diamine]
Ki: > 2960 nM

CC(C)c1cc(NC(c2ccc(OC(F)(F)F)c(F)c2)C(C)(C)O)n2ncnc2n1 (single isomer, unassigned) [Example 139, (1R or S)-1-[3-Fluoro-4-(trifluoro-methoxy)phenyl]-2-methyl-1-{[5-(1-methylethyl) [1,2,4]triazolo [1,5-a]pyrimidin-7-yl]amino} propan-2-ol]
Ki: > 2960 nM

CC(C)(O)C(Nc1cc(C(F)(F)F)nc2ncnn12)c1ccc(SC(F)(F)F)cc1 (single isomer, unassigned) [Example 222, (S)- or (R)-2-Methyl-1-(5-(trifluoromethyl)-[1,2,4]triazolo [1,5-a]pyrimidin-7-ylamino)-1-(4-(trifluoromethylthio)phenyl)propan-2-ol]
Ki: 4.4 nM

CC(C)(O)[C@@H](Nc1cc(C(F)(F)F)cc2ncnn12)c1ccc(C(F)(F)F)cc1 [Example 277, (1S)-2-Methyl-1-[4-(trifluoromethyl)phenyl]-1-{[7-(trifluoromethyl)[1,2,4]triazolo [1,5-a]pyridin-5-yl]amino} propan-2-ol]
Ki: 87 nM

CN(C)c1cc(NC2(c3ccc(C(F)(F)F)c(F)c3)CC2)n2ncnc2n1 [Example 239, N^7-(1-(3-Fluoro-4-(trifluoromethyl)phenyl)cyclopropyl)-N,N-dimethyl-[1,2,4]triazolo[1,5-a]pyrimidine-5,7-diamine]
Ki: 13 nM

Cc1cc(NC(c2ccc(C(F)F)cc2)C(C)(C)O)n2ncnc2n1 (single isomer, unassigned) [Example 109, (1R or S)-1-[4-(Difluoromethyl)phenyl]-2-methyl-1-[(5-methyl [1,2,4]triazolo [1,5-a]pyrimidin-7-yl)amino] propan-2-ol]
Ki: 905 nM

Cc1cc(O[C@@H](c2ccc(C(F)(F)F)cc2)C(C)(C)C)n2ncnc2n1 (single isomer, unassigned) [Example 260]
Ki: 14 nM

Cc1cc(N[C@@H](CC(C)(C)O)c2ccc(C(F)(F)F)c(F)c2)n2ncnc2n1 [Example 153, (4S)-4-[3-Fluoro-4-(trifluoromethyl)phenyl]-2-methyl-4-[(5-methyl[1,2,4]triazolo[1,5-a]pyrimidin-7-yl)amino]butan-2-ol]
Ki: > 2960 nM

Cc1cc(NC(c2ccc(C3(C)CC3)cc2)C(C)(C)O)n2ncnc2n1 (single isomer, unassigned) [Example 121, (1R or S)-2-Methyl-1-[4-(1-methyl-cyclopropyl)phenyl]-1-[(5-methyl[1,2,4]triazolo[1,5-a]pyrimidin-7-yl)amino]propan-2-ol]
Ki: 11 nM

Cc1cc(N[C@H](c2ccc(C(F)(F)F)cc2)C(C)(C)O)n2ncnc2n1 [Example 95, (1R)-2-Methyl-1-[(5-methyl [1,2,4]triazolo[1,5-a]pyrimidin-7-yl)amino]-1-[4-(trifluoromethyl)phenyl]propan-2-ol]
Ki: > 2960 nM

Fc1cc(C2(Nc3cc(C4CC4)nc4ncnn34)CC2)ccc1OC(F)(F)F [Example 71, 5-Cyclopropyl-N-{1-[3-fluoro-4-(trifluoromethoxy)phenyl]cyclo-propyl}[1,2,4]triazolo[1,5-a]pyrimidin-7-amine]
Ki: 25 nM
